In this experiment the test system is P388 leukemia ip, CD2F1 mice, survival T/C. Briefly: NCI In Vivo Anticancer Drug Screen. Data for tumor model P388 Leukemia (intraperitoneal) in CD2F1 (CDF1) mice. The note with it: endpoint: median survival time, higher = longer survival. A digest of the protocol:
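Mice carrying the transplanted tumor received test compound or vehicle. Survival was recorded in each group, and the value is the treated-group measurement divided by that of the vehicle-treated control group.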

Setting [1] is: dose: 50.0 mg/kg/injection, schedule: Q01DX005 (ip), vehicle: saline with Tween-80.
Where [2] appears, read: dose: 100.0 mg/kg/injection, schedule: Q01DX005 (ip), vehicle: saline with Tween-80.
[3] abbreviates: dose: 200.0 mg/kg/injection, schedule: Q01DX005 (ip), vehicle: saline with Tween-80.
Where [4] appears, read: dose: 25.0 mg/kg/injection, schedule: Q01DX009 (ip), vehicle: saline with Tween-80.
The mark [5] stands for this setting: dose: 50.0 mg/kg/injection, schedule: Q01DX005 (ip), vehicle: saline.
[6] abbreviates: dose: 100.0 mg/kg/injection, schedule: Q01DX005 (ip), vehicle: saline.
[7] abbreviates: dose: 200.0 mg/kg/injection, schedule: Q01DX005 (ip), vehicle: saline.
Where [8] appears, read: dose: 100.0 mg/kg/injection, schedule: Q01DX001 (ip), vehicle: Klucel (hydroxypropylcellulose) (HPC).
Where [9] appears, read: dose: 200.0 mg/kg/injection, schedule: Q01DX001 (ip), vehicle: Klucel (hydroxypropylcellulose) (HPC).
Setting [10] is: dose: 400.0 mg/kg/injection, schedule: Q01DX001 (ip), vehicle: Klucel (hydroxypropylcellulose) (HPC).
The mark [11] stands for this setting: dose: 50.0 mg/kg/injection, schedule: Q01DX009 (ip), vehicle: saline with Tween-80.

Values joined by “and” are separate entries in the source; they are usually repeats but may differ in a detail not shown here. Identical values can stand only once. Toxic doses and inconclusive results are not listed. Peptide text beside a SMILES is read from it.

In the case of `NCCCCC(C(=O)NC(CCC(=O)OCc1ccccc1)C(=O)Oc1ccc([N+](=O)[O-])cc1)N(C(=O)OCc1ccccc1)C(=O)OCc1ccccc1` (centres undefined), the T/C runs as follows: under setting [1], 100 % of control; under setting [2], 100 % of control; under setting [3], 92 % of control.
Regarding `CS(=O)(=O)OCCN(CCOS(C)(=O)=O)c1ccccc1`, the T/C is 109 % of control (dose: 1.56 mg/kg/injection, schedule: Q04DX003 (ip), vehicle: saline); 104 % of control (dose: 3.13 mg/kg/injection, schedule: Q04DX003 (ip), vehicle: saline); 154 % of control (dose: 6.25 mg/kg/injection, schedule: Q01DX009 (ip), vehicle: saline with Tween-80); 122 % of control (dose: 6.25 mg/kg/injection, schedule: Q04DX003 (ip), vehicle: saline); 200 % of control (dose: 12.5 mg/kg/injection, schedule: Q01DX009 (ip), vehicle: saline with Tween-80); 181 % of control under setting [4]. In addition, the T/C is, setting by setting: (dose: 25.0 mg/kg/injection, schedule: Q01DX009 (ip), vehicle: saline) 204 % of control; (dose: 25.0 mg/kg/injection, schedule: Q04DX003 (ip), vehicle: saline) 204 % of control; (dose: 50.0 mg/kg/injection, schedule: Q01DX009 (ip), vehicle: saline) 90 % of control.
`COc1ccc(/C=N\NC(=O)C(=O)N/N=C\c2ccc(OC)cc2)cc1`: the T/C was 103 % of control (dose: 12.5 mg/kg/injection, schedule: Q01DX009 (ip), vehicle: distilled water + alcohol); 100 % of control (dose: 25.0 mg/kg/injection, schedule: Q01DX009 (ip), vehicle: distilled water + alcohol); 94 % of control (dose: 50.0 mg/kg/injection, schedule: Q01DX009 (ip), vehicle: distilled water + alcohol); 89 % of control (dose: 100.0 mg/kg/injection, schedule: Q01DX009 (ip), vehicle: distilled water + alcohol); 108 % of control (dose: 200.0 mg/kg/injection, schedule: Q01DX009 (ip), vehicle: distilled water + alcohol).
For `CCC1(O)CC(OC2CC(N(C)C)C(OC3CC(O)C(OC4CCC(=O)C(C)O4)C(C)O3)C(C)O2)c2c(cc3c(c2O)C(=O)c2c(O)ccc(O)c2C3=O)C1C(=O)OC` (centres undefined), the T/C is 178 % of control (dose: 0.78 mg/kg/injection, schedule: Q01DX009 (ip), vehicle: saline with Tween-80); 241 % of control (dose: 1:4.0 dilution, schedule: Q01DX009 (ip), vehicle: saline); 190 % of control (dose: 1:8.0 dilution, schedule: Q01DX009 (ip), vehicle: saline).
In the case of `COc1ccc(C2c3cc4c(cc3OC3(N5CCCC5)CCCCC23)OCO4)cc1` (centres undefined), the T/C by setting is: (dose: 60.0 mg/kg/injection, schedule: Q01DX005 (ip), vehicle: Klucel (hydroxypropylcellulose) (HPC)) 99 % of control; (dose: 120.0 mg/kg/injection, schedule: Q01DX005 (ip), vehicle: Klucel (hydroxypropylcellulose) (HPC)) 94 % of control; (dose: 240.0 mg/kg/injection, schedule: Q01DX005 (ip), vehicle: Klucel (hydroxypropylcellulose) (HPC)) 88 % of control.
Turning to `O=[N+]([O-])C(CO)CCCC(CO)[N+](=O)[O-]` (centres undefined), the T/C reads like this: under setting [5], 111 % of control; under setting [6], 107 % of control; under setting [7], 107 % of control.
On to `O=C(O)Cc1cn2ccccc2n1`, for which the T/C under setting [8] is 96 % of control, the T/C under setting [9] is 100 % of control and the T/C under setting [10] was 93 % of control.
`COc1ccc(CSC(=S)Nc2ccc(SC)c(Cl)c2)cc1`: the T/C was 100 % of control (dose: 50.0 mg/kg/injection, schedule: Q01DX009 (ip), vehicle: suspension in saline); 108 % of control (dose: 100.0 mg/kg/injection, schedule: Q01DX009 (ip), vehicle: suspension in saline); 98 % of control (dose: 200.0 mg/kg/injection, schedule: Q01DX009 (ip), vehicle: suspension in saline).
Consider `CC(C)=CCCC1(C)C=Cc2c(ccc3c(C)noc23)O1` (centres undefined), for which the T/C was 100 % of control under setting [1], 89 % of control under setting [2] and 110 % of control under setting [3].
For `CC(C)CC(N)C(=O)NC(C)C(=O)NC(CC(C)C)C(=O)O` (stereo not drawn) (H-Leu-Ala-Leu-OH; configuration not given here), the T/C reads like this: (dose: 25.0 mg/kg/injection, schedule: Q01DX005 (ip), vehicle: saline) 101 % of control; under setting [5], 102 % of control; under setting [6], 101 % of control; under setting [7], 100 % of control.
For `COc1ccc(-c2n[nH]c(-c3ccc(OC)cc3)c2N=Nc2ccc(S(=O)(=O)Nc3nnc(C)s3)cc2)cc1`, the T/C was 103 % of control (dose: 100.0 mg/kg/injection, schedule: Q04DX002 (ip), vehicle: saline with Tween-80); 103 % of control (dose: 200.0 mg/kg/injection, schedule: Q04DX002 (ip), vehicle: saline with Tween-80); 94 % of control (dose: 400.0 mg/kg/injection, schedule: Q04DX002 (ip), vehicle: saline with Tween-80).
As for `COc1cc(Cc2nnc(NN=C(C)C)[nH]c2=O)cc(OC)c1OC`, the T/C by setting is: (dose: 50.0 mg/kg/injection, schedule: Q01DX001 (ip), vehicle: Klucel (hydroxypropylcellulose) (HPC)) 115 % of control; under setting [8], 98 % of control and 100 % of control; under setting [9], 100 % of control and 124 % of control; under setting [10], 105 % of control and 116 % of control.
As for `CC(=O)CC(C)(C)c1ccccc1`, the T/C under setting [4] is 106 % of control; the T/C under setting [11] was 104 % of control; the T/C (dose: 100.0 mg/kg/injection, schedule: Q01DX009 (ip), vehicle: saline with Tween-80) is 107 % of control and 108 % of control; the T/C (dose: 200.0 mg/kg/injection, schedule: Q01DX009 (ip), vehicle: saline with Tween-80) was 103 % of control and 116 % of control; the T/C (dose: 400.0 mg/kg/injection, schedule: Q01DX009 (ip), vehicle: saline with Tween-80) is 113 % of control and 95 % of control.
In the case of `CC(C)[S][Pb]([c]1ccccc1)([c]1ccccc1)[c]1ccccc1`, the T/C reads like this: (dose: 1.25 mg/kg/injection, schedule: Q01DX009 (ip), vehicle: gum acacia) 116 % of control; (dose: 2.5 mg/kg/injection, schedule: Q01DX009 (ip), vehicle: gum acacia) 118 % of control; (dose: 5.0 mg/kg/injection, schedule: Q01DX009 (ip), vehicle: gum acacia) 111 % of control; (dose: 6.25 mg/kg/injection, schedule: Q04DX003 (ip), vehicle: gum acacia) 97 % of control; (dose: 12.5 mg/kg/injection, schedule: Q04DX003 (ip), vehicle: gum acacia) 104 % of control.
For the molecule `O=C(CBr)NN=C(c1ccccc1)c1ccccc1`, the T/C is, setting by setting: (dose: 29.0 mg/kg/injection, schedule: Q01DX009 (ip), vehicle: saline with Tween-80) 104 % of control; (dose: 58.0 mg/kg/injection, schedule: Q01DX009 (ip), vehicle: saline with Tween-80) 101 % of control; (dose: 116.0 mg/kg/injection, schedule: Q01DX009 (ip), vehicle: saline with Tween-80) 110 % of control.
With `O=C(N1CCC2(CC1)SSC1(CCN(C(=O)C(F)(F)F)CC1)S2)C(F)(F)F`, the T/C was 87 % of control (dose: 100.0 mg/kg/injection, schedule: Q04DX003 (ip), vehicle: saline with Tween-80) and 91 % of control (dose: 200.0 mg/kg/injection, schedule: Q04DX003 (ip), vehicle: saline with Tween-80).
Regarding `CSC1(C)C(=O)Nc2cccc([N+](=O)[O-])c21` (centres undefined), the T/C is, setting by setting: (dose: 100.0 mg/kg/injection, schedule: Q01DX001 (ip), vehicle: saline with Tween-80) 100 % of control; (dose: 200.0 mg/kg/injection, schedule: Q01DX001 (ip), vehicle: saline with Tween-80) 93 % of control; (dose: 400.0 mg/kg/injection, schedule: Q01DX001 (ip), vehicle: saline with Tween-80) 100 % of control.
For `O=C(O)C(=O)O.O=N[O-].[Co+3].[NH-]CC[N-]CC[NH-]`, the T/C runs as follows: under setting [4], 108 % of control; under setting [11], 108 % of control.
Turning to `CO/C=C/c1cc2c(cc1Br)OCO2`, the T/C is, setting by setting: (dose: 60.0 mg/kg/injection, schedule: Q01DX005 (ip), vehicle: saline with Tween-80) 105 % of control; (dose: 120.0 mg/kg/injection, schedule: Q01DX005 (ip), vehicle: saline with Tween-80) 111 % of control; (dose: 240.0 mg/kg/injection, schedule: Q01DX005 (ip), vehicle: saline with Tween-80) 97 % of control.

Values taken from PubChem BioAssay AID330 (DTP/NCI, 2004).
